From patent US20250032573A1, “IMMUNITY-ENHANCING PEPTIDE ANALOGS AND USES THEREOF” (RESEARCH & BUSINESS FOUNDATION SUNGKYUNKWAN UNIVERSITY, priority 2023, published 2025)

Legend:
FPR1 = FPR1 (Homo sapiens, UniProt P21462); experiment: cell-based; conditions: FPR1-expressing RBL-2H3 cell line
Protocol: To investigate whether activation of FPR1, which is important in regulating the activity of innate immune cells, is induced by the WKYMVm peptide analogs, changes in calcium ions were measured in RBL-2H3 cell line, a type of mast cell that artificially expressed FPR1. […] On the other hand, an increase in intracellular calcium ions by WKYMVβm (V is a β-amino acid) through activation of FPR1 was not observed.

FPR2 = FPR2 (Homo sapiens, UniProt P25090); experiment: cell-based; conditions: FPR2-expressing RBL-2H3 cell line
Protocol: To investigate whether activation of FPR2 is induced by the WKYMVm peptide analogs, changes in calcium ions were measured in RBL-2H3 cell line that artificially expressed FPR2.

neutrophils [1] = experiment: Superoxide anion (ROS) production in neutrophils; format: cell-based
Protocol: The effect of superoxide anion production in neutrophils by the peptoid-comprising analogs in which a peptoid residue was substituted for K, Y, and M in the structure of WKYMVm was measured.

neutrophils [2] = experiment: Degranulation activity of neutrophils (beta-hexosaminidase activity); format: cell-based
Protocol: The degranulation activity of neutrophils by the analogs in which each amino acid in the structure of WKYMVm was substituted with a β-amino acid was compared and analyzed by measuring beta-hexosaminidase activity.
The degranulation activity of neutrophils by the peptoid-containing analogs in which a peptoid residue was substituted for K, Y, and M in the structure of WKYMVm was measured.

neutrophils [3] = experiment: Neutrophil chemotaxis assay using a Boyden chamber; format: cell-based
Protocol: To investigate the effect of the WKYMVm peptide analogs on the regulation of immune cell mobility, which a representative function of FPR, a chemotaxis assay was performed using a Boyden chamber.
To measure the in vitro innate immune activity of four peptides comprising one non-natural β^3-amino acid residue, the effect of enhancing neutrophil mobility was measured.

[4] = tested on: neutrophils isolated from mouse bone marrow; experiment: Cytokine secretion of neutrophils by ELISA, with or without LPS; format: cell-based; conditions: 1 μM
Protocol: Neutrophils regulate the activity of other immune cells through the production of various types of cytokines. To investigate the effect of the WKYMVm peptide analogs on regulating cytokine production in neutrophils, […], and 24 hours later, the supernatants were collected and subjected to an enzyme-linked immunosorbent assay (ELISA) to measure the amount of cytokine secretion.

neutrophils [5] = tested on: neutrophils

Chain of FPR2 (P25090 whole entry): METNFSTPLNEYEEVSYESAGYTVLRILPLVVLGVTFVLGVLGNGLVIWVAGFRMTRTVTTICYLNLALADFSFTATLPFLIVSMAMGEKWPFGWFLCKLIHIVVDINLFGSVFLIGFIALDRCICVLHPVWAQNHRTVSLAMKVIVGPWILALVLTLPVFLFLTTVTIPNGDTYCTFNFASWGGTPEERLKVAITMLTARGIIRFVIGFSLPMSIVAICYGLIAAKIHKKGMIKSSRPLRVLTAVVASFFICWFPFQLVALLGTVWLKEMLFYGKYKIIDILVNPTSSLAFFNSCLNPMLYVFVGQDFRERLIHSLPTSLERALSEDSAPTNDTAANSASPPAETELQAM
Chain of FPR1 (P21462 whole entry): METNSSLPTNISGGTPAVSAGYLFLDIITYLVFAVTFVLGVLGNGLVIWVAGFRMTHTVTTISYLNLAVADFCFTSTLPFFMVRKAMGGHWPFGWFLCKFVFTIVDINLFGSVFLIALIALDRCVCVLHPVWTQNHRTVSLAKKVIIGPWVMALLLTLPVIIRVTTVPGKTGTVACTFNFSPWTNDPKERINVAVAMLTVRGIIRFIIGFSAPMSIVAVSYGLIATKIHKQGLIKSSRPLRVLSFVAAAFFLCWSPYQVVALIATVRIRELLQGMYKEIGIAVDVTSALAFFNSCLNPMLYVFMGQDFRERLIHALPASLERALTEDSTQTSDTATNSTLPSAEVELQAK

Compound: CSCC[C@H](NC(=O)[C@H](Cc1ccc(O)cc1)NC(=O)[C@H](CCCCN)NC(=O)[C@@H](N)Cc1c[nH]c2ccccc12)C(=O)N[C@H](CC(=O)N[C@H](CCSC)C(N)=O)C(C)C [WKYMVβm]
- increase in intracellular calcium ions through activation of FPR1 (in words) (FPR1): not observed
- increase in intracellular calcium ions through activation of FPR2 (in words) (FPR2): not observed
- superoxide anion production in neutrophils (neutrophils [1]): did not induce superoxide anion production
- degranulation activity of neutrophils (neutrophils [2]): did not induce the degranulation activity of neutrophils
- effect of enhancing neutrophil mobility, compared with the WKYMVm peptide (neutrophils [3]): weak activity only at high concentrations
- neutrophil mobility at 1 μM (neutrophils [3]; 1 μM): highly active neutrophil mobility promotion effect was induced
- neutrophil mobility at a low concentration (neutrophils [3]; low concentration): not promoted
- effect in regulating the neutrophil activity (LPS-induced cytokines) [4]: minimal effect
- calcium ion-increasing effect in neutrophils (neutrophils [5]): not exhibited
